molecular target: T1, glutathione S-transferase (GST)-linked full-length human Syk protein (Homo sapiens, UniProt P43405); experiment: Syk enzyme assay; assay type: biochemical; settings: 0.83 nM Syk, time-resolved fluorescence; read-out: IC50 of Syk-inhibitory activity
T1 construct: glutathione S-transferase (GST)-linked full-length human Syk protein; purchased Carna Biosciences; host or cells: Baculovirus expression system
Outline: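 Phosphotyrosine on a biotin-peptide substrate (0.5 μM) was read by time-resolved fluorescence at 615 and 665 nm with Eu-anti-pTyr antibody and APC-streptavidin after 1 h EDTA stop.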

Structure (SMILES)	IC50 [nM]
CCCC[C@@H](Nc1nc(Nc2ccc3c(c2)c(N(C)C)nn3C)c(C(N)=O)cc1F)[C@H](C)N [Example 2-90, 6-(((2S,3R)-2-aminoheptan-3-yl)amino)-2-((3-(dimethylamino)-1-methyl-1H-indazol-5-yl)amino)-5-fluoronicotinamide]	10 to 50
CC[C@H](N)[C@@H](C)Nc1nc(Nc2ccc3[nH]nc(NC)c3c2)c(C(N)=O)cc1F [Example 2-491, 6-(((2R,3S)-3-aminopentan-2-yl)amino)-5-fluoro-2-((3-(methylamino)-1H-indazol-5-yl)amino)nicotinamide]	10 to 50
CC[C@H](N)[C@@H](CC)Nc1nc(Nc2cc(F)c3c(c2)c(N(C)C)nn3C)c(C(N)=O)cc1F [Example 2-195, 6-(((3R,4S)-4-aminohexan-3-yl)amino)-2-((3-(dimethylamino)-7-fluoro-1-methyl-1H-indazol-5-yl)amino)-5-fluoronicotinamide]	10 to 50
C[C@H](N)[C@H](Nc1nc(Nc2cnc(N3CCOCC3)c(F)c2)c(C(N)=O)cc1F)c1ccc(Cl)s1 [Example 2-511, 6-(((1S,2S)-2-amino-1-(5-chlorothiophen-2-yl)propyl)amino)-5-fluoro-2-((5-fluoro-6-morpholinopyridin-3-yl)amino)nicotinamide]	10 to 50
CC[C@H](N)[C@H](Nc1nc(Nc2cnc(N3CCOCC3)c(F)c2)c(C(N)=O)cc1F)C1CC1 [Example 2-359, 6-(((1R,2S)-2-amino-1-cyclopropylbutyl)amino)-5-fluoro-2-((5-fluoro-6-morpholinopyridin-3-yl)amino)nicotinamide]	50 to 100
CC[C@@H](Nc1nc(Nc2ccc3nn(C)c(N(C)C)c3c2)c(C(N)=O)cc1F)[C@H](C)N [Example 2-16, 6-(((2S,3R)-2-aminopentan-3-yl)amino)-2-((3-(dimethylamino)-2-methyl-2H-indazol-5-yl)amino)-5-fluoronicotinamide]	10 to 50
Cc1ncc(Nc2nc(N[C@H](c3cccc(F)c3)[C@H](C)N)c(F)cc2C(N)=O)cc1-n1nccn1 [Example 2-412, 6-(((1R,2S)-2-amino-1-(3-fluorophenyl)propyl)amino)-5-fluoro-2-((6-methyl-5-(2H-1,2,3-triazol-2-yl)pyridin-3-yl)amino)nicotinamide]	10 to 50
CC[C@H](N)[C@H](Nc1nc(Nc2cncc(F)c2)c(C(N)=O)cc1F)C1CC1 [Example 2-486, 6-(((1R,2S)-2-amino-1-cyclopropylbutyl)amino)-5-fluoro-2-((5-fluoropyridin-3-yl)amino)nicotinamide]	10 to 50

Second part, the compound after the results:

IC50 [nM]	Structure (SMILES)
10 to 50	CNc1ncc(Nc2nc(N[C@H](CC(C)C)[C@H](C)N)c(F)cc2C(N)=O)cc1F [Example 2-278, 6-(((2S,3R)-2-amino-5-methylhexan-3-yl)amino)-5-fluoro-2-((5-fluoro-6-(methylamino)pyridin-3-yl)amino)nicotinamide]
< 10	CC(C)C[C@@H](Nc1nc(Nc2ccc3c(c2)c(N(C)C)nn3C)c(C(N)=O)cc1F)[C@H](C)N [Example 2-3, 6-(((2S,3R)-2-amino-5-methylhexan-3-yl)amino)-2-((3-(dimethylamino)-1-methyl-1H-indazol-5-yl)amino)-5-fluoronicotinamide]
< 10	COc1nn(CC(F)F)c2ccc(Nc3nc(N[C@H](CC4CC4)[C@H](C)N)c(F)cc3C(N)=O)cc12 [Example 2-53, 6-(((2R,3S)-3-amino-1-cyclopropylbutan-2-yl)amino)-2-((1-(2,2-difluoroethyl)-3-methoxy-1H-indazol-5-yl)amino)-5-fluoronicotinamide]
< 10	CC[C@@H](Nc1nc(Nc2ccc3c(c2)c(OC)nn3CC(F)F)c(C(N)=O)cc1F)[C@H](C)N [Example 2-55, 6-(((2S,3R)-2-aminopentan-3-yl)amino)-2-((1-(2,2-difluoroethyl)-3-methoxy-1H-indazol-5-yl)amino)-5-fluoronicotinainide]
